SMILES strings stand for the structures.

For experiment [1], the target named is T1, NMDA (N-methyl-D-aspartate) receptor (Rattus norvegicus, UniProt P35439).
T1 construct: freshly removed rat cerebra were homogenized; from tissue; host or cells: rat cerebrum, washed membranes
Briefly: Binding of ^3 H-5,7-dichlorokynurenic acid (displacement on rat cerebral membranes). Conditions: rat cerebra membranes, pH 7.4, 30 minutes on ice.

A further experiment has as its target AMPA receptor. Briefly: Binding of ^3 H-AMPA (displacement on rat cerebral membranes). Conditions: rat cerebra membranes, pH 7.1, 60 minutes on ice. The protocol:
For this, the membrane material was treated in the presence of the compounds according to the invention with the radio-labeled substances ^3 H-2-amino-3-hydroxy-5-methyl-4-isoxazolepropionic acid (^3 H-AMPA) and ^3 H-5,7-dichlorocyanuric [sic] acid, which bind to specific receptors (AMPA and NMDA (N-methyl-D-aspartate) receptors respectively). Subsequently the radioactivity in the treated membranes was measured by scintillation counting. It was possible from the bound radioactivity to determine the amounts of bound 3H AMPa and ^3 H-5,7-dichlorokyanurenicacid, or the amounts of each of these radiolabeled substances displaced.
1. Binding of ^3 H-2-amino-3-hydroxy-5-methyl-4-isoxazolepropionic acid (^3 H-AMPA).
To prepare the membrane material, freshly removed rat cerebra were homogenized together with about 15 times the volume of a buffer solution A composed of 30 mM α,α,α-tris(hydroxymethyl)methylamine hydrochloride (TRIS-HCl) and 0.5 mM ethylenediaminetetraacetic acid (EDTA), pH 7.4, using an Ultra-TURRAX. The suspension was centrifuged at 48,000 g for 20 min. After removal of the supernatant liquid, the protein-containing membrane material present in the pellet was washed three times by suspension in buffer solution A and subsequent centrifugation at 48,000 g for 20 minutes each time. The membrane material was then suspended in 15 times the volume of buffer solution A and incubated at 37° C. for 30 minutes. Subsequently the protein material was washed twice by centrifugation and suspension and was stored at -70° C. until used.
For the binding test, the protein material was thawed at 37° C. and washed twice by centrifugation at 48,000 g (20 min) and subsequent suspension in a buffer solution B composed of 50 mM TRIS-HCl, 0.1M potassium thiocyanate and 2.5 mM calcium chloride, pH 7.1. […] The filtrate [sic] was subsequently washed with 5 ml of cold buffer solution B in order to separate bound and free ^3 H-AMPA from one another. After measurement of the radioactivity of the bound ^3 H-AMPA in the membrane material by scintillation counting, the KI was determined by regression analysis of the displacement plots.

Molecule `O=C(O)c1nc2c3c([nH]c(=O)n2n1)CCSC3` [Example 18] gave a Ki in experiment [1] of 800 nM.
Regarding `O=C(O)c1nc2c3c([nH]c(=O)n2n1)-c1ccccc1CC3` [Example 10], the results for the Ki (at AMPA receptor; in experiment [1]) were 1700 nM and 300 nM, respectively.
In experiment [1], `O=C(O)c1nc2c3c([nH]c(=O)n2n1)CCC3` [Example 6] gave a Ki of 1600 nM.
As for `O=C(NCc1ccc([N+](=O)[O-])cc1)c1nc2c3c([nH]c(=O)n2n1)CCCC3` [Example 15], in experiment [1], the Ki came out at 2000 nM.
Turning to `O=C(O)CCc1nc2c3c([nH]c(=O)n2n1)-c1ccccc1CC3` [Example 11], the Ki on AMPA receptor is 1000 nM; in experiment [1], 100 nM.
Molecule `CCOC(=O)c1nc2c3c([nH]c(=O)n2n1)-c1ccccc1CC3` [Example 9] had a Ki in experiment [1] of 650 nM.
`O=C(NCc1ccccc1)c1nc2c3c([nH]c(=O)n2n1)CCCC3` [Example 3, 7,8,9,10-Tetrahydro-1,2,4-triazolo[1,5-c]quinazolin-5-one-2-carboxylic acid N-benzylolylamide]: the Ki was determined as 1500 nM on AMPA receptor and 1200 nM in experiment [1].
For the molecule `CCOC(=O)c1nc2c3c([nH]c(=O)n2n1)CC1CCCCC1C3` (stereo not shown) [Example 21], the inhibition constant (Ki) on AMPA receptor worked out at 1700 nM; in experiment [1] it was 2600 nM.
For the molecule `O=C(NCc1ccc(Cl)c(Cl)c1)c1nc2c3c([nH]c(=O)n2n1)CCCC3` [Example 12], the Ki in experiment [1] was determined as 1600 nM.
In turn, `CCOC(=O)c1nc2c3c([nH]c(=O)n2n1)CCCCC3` [Example 7] returned a Ki in experiment [1] of 400 nM.
As for `O=C(O)c1nc2c3c([nH]c(=O)n2n1)CCCCC3` [Example 8], the Ki in experiment [1] amounted to 200 nM.
On to `O=C(O)c1nc2c3c(nc(=O)n2[nH]1)CCCC3` [Example 2, 7,8,9,10-Tetrahydro-1,2,4-triazolo[1,5-c]quinazolin-5-one-2-carboxylic acid], for which the Ki in experiment [1] is 200 nM.

Values taken from patent US5654310A, “Triazolopyrimidones their preparation and use” (BASF Aktiengesellschaft, priority 1992, dated 1997).
